Data as given in PubChem BioAssay (NCI).
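Interpolation was linear, between the two tested concentrations surrounding the appropriate level; five concentrations were tested over 48 hours in 96-well plates. GI50 = concentration required for 50% inhibition of growth. TGI: concentration producing complete growth inhibition.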

Experiments:
Experiment in all cases: growth of human tumour cells (NCI), 48 h
HCC-2998 colon = test system: HCC-2998 colon
MOLT-4 leukemia = test system: MOLT-4 leukemia
HL-60(TB) leukemia = test system: HL-60(TB) leukemia
RXF 393 renal = test system: RXF 393 renal
RPMI-8226 leukemia = test system: RPMI-8226 leukemia
PC-3 prostate = test system: PC-3 prostate
MALME-3M melanoma = test system: MALME-3M melanoma
HT29 colon = test system: HT29 colon
HOP-92 NSCLC = test system: HOP-92 NSCLC
IGROV1 ovarian = test system: IGROV1 ovarian

SMILES	GI50 (HCC-2998 colon) [µM]	TGI (HCC-2998 colon) [µM]	GI50 (MOLT-4 leukemia) [µM]	TGI (MOLT-4 leukemia) [µM]	GI50 (HL-60(TB) leukemia) [µM]	TGI (HL-60(TB) leukemia) [µM]	GI50 (RXF 393 renal) [µM]	TGI (RXF 393 renal) [µM]	GI50 (RPMI-8226 leukemia) [µM]	TGI (RPMI-8226 leukemia) [µM]	GI50 (PC-3 prostate) [µM]	TGI (PC-3 prostate) [µM]	GI50 (MALME-3M melanoma) [µM]	TGI (MALME-3M melanoma) [µM]	GI50 (HT29 colon) [µM]	TGI (HT29 colon) [µM]	GI50 (HOP-92 NSCLC) [µM]	TGI (HOP-92 NSCLC) [µM]	GI50 (IGROV1 ovarian) [µM]	TGI (IGROV1 ovarian) [µM]
CCCCCCCCNC(C)C(O)c1ccc(SC(C)C)cc1 (centres undefined)	1.58	3.02	2.48	5.27	2.2	4.07	1.45	2.81	2.06	4.91	1.58	3.02	1.98	3.81	0.654	1.91	1.17	2.53	1.81	3.38
Fc1cccc(Cl)c1Cn1c(-c2c(F)cccc2Cl)nc2ccccc21	2.31	9.87	11.1	> 100	3.86	74.6	19.7	43.6	13.3	60	14.7	55.3	8.29	24.7	30	> 100	13.9	38.5	21.9	> 100
COc1cc(C(=O)O/N=C(\N)Cc2cccc3ccccc23)cc(OC)c1OC	17.2	34.3	4.53	29.4	5.35	36.5	10.7	23.9	3.02	12.6	6.02	20.6	8.4	21.9	15.7	38.3	4.59	17	3.61	12.1
COc1ccc(-n2cc(-c3cc(OC)c(OC)c(OC)c3)[nH]c2=S)cc1Cl	39.7	> 100	> 100	> 100	> 100	> 100	17.6	> 100	5.14	> 100	54.6	> 100	40.1	> 100	> 100	> 100	14	33	25.6	> 100
O=C1NC(=O)[C@@H](c2c[nH]c3ccccc23)[C@@H]1c1c[nH]c2ccccc12	> 25	> 25	> 25	> 25	> 25	> 25	> 25	> 25	> 25	> 25	> 25	> 25	> 21.8	> 25	> 25	> 25	21.2	> 25	> 25	> 25
CN1CCN(c2ccc3nc(-c4[nH]ncc4Nc4ncnc5c4OCCCN5)[nH]c3c2)CC1	0.0159	0.0762	< 0.01	0.315	< 0.01	0.0298	< 0.01		0.0418	0.155	< 0.01	0.0671	0.0185	0.0633	< 0.0126	0.1	< 0.0107	0.0429	< 0.01	0.0707
